Laboratory results taken from patent US8193239B2, “Substituted 1-cyanoethylheterocyclylcarboxamide compounds” (AstraZeneca AB, priority 2009, dated 2012).
Where a name gives a salt, the structure may show the parent alone.

Target: Recombinant Human (rh) DPP1 (Homo sapiens, UniProt P53634)
Assay: Fluorescence Assay for Recombinant Human (rh) DPP1
Assay type: biochemical
Settings: rhDPP1, substrate H-Gly-Arg-AMC, pH5.0, 22° C., pre-incubated 30-60 min; read-out: DPP1 activity, pIC50 (converted)
Protocol: Fluorescence Assay for Recombinant Human (rh) DPP1
The activity of DPP1 was determined by measuring the enzymatic release of aminomethyl coumarin (AMC) from the peptide substrate (H-Gly-Arg-AMC), which leads to an increase in fluorescence intensity at λex=350 nm and λem=450 nm. The assay was carried out in black 384 well plates in a final volume of 50 μl at 22° C. The assay conditions contained the following: 25 mM piperazine buffer pH5.0; 50 mM NaCl, 5 mM DTT; 0.01% (v/v) Triton X-100; 100 μM H-Gly-Arg-AMC and rhDPP1 ([…]). […] A standard DPP1 inhibitor (vinyl sulfone, see below, or Example 24 from WO2009/074829) was used as a positive control in the assay. Routinely, inhibitors were pre-incubated with rhDPP1 for 30-60 min prior to the addition of the peptide substrate to start the reaction for a further 60 min at 22° C. After that the plates were immediately read in a fluorescence plate reader using the above emission and excitation wavelengths [modified from Kam, C M, Gotz, M G, Koot, G, McGuire, M J, Thiele, D L, Hudig, D & Powers, J C (2004). Arch Biochem Biophys, 427, 123-134 & McGuire, M J, Lipsky, P E & Thiele, D L (1992). Arch Biochem Biophys, 295, 280-288].

Sequence of Recombinant Human (rh) DPP1 (P53634 231-394 limits assumed): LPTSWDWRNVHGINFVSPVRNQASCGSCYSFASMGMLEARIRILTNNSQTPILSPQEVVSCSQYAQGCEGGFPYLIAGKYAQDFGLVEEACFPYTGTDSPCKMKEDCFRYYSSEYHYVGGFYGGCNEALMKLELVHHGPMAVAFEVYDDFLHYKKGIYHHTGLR
Sequence of Recombinant Human (rh) DPP1 (P53634 25-134 limits assumed): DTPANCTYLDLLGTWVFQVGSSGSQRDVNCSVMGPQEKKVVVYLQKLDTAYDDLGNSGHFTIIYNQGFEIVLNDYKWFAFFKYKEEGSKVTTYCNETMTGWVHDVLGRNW
Sequence of Recombinant Human (rh) DPP1 (P53634 395-463 limits assumed): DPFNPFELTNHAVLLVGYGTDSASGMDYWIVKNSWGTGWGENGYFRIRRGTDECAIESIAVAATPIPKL

Row | IC50 [nM] | Compound
1 | 0.2 | COCCn1c(=O)oc2ccc(-c3ccc(C[C@@H](C#N)NC(=O)C4(N)CCOCC4)cc3)cc21 [Example 24, (S)-4-Amino-N-(1-cyano-2-(4-(3-(2-methoxyethyl)-2-oxo-2,3-dihydrobenzo[d]oxazol-5-yl)phenyl)ethyl)tetrahydro-2H-pyran-4-carboxamide trifluoroacetic acid salt]
2 | 1 | CC(C)S(=O)(=O)c1ccc(-c2ccc(C[C@@H](C#N)NC(=O)C3(N)CCOCC3)cc2)cc1 [Example 5, (S)-4-Amino-N-(1-cyano-2-(4′-(isopropylsulfonyl)biphenyl-4-yl)ethyl)tetrahydro-2H-pyran-4-carboxamide]
3 | 0.794 | N#Cc1cccc(-c2ccc(C[C@@H](C#N)NC(=O)C3(N)CCOCC3)cc2)c1 [Example 8, (S)-4-Amino-N-(1-cyano-2-(3′-cyanobiphenyl-4-yl)ethyl)tetrahydro-2H-pyran-4-carboxamide]
4 | 0.794 | CCS(=O)(=O)c1ccc(-c2ccc(C[C@@H](C#N)NC(=O)C3(N)CCOCC3)cc2)cc1 [Example 2, (S)-4-Amino-N-(1-cyano-2-(4′-(ethylsulfonyl)biphenyl-4-yl)ethyl)tetrahydro-2H-pyran-4-carboxamide]
5 | 0.398 | N#C[C@H](Cc1ccc(-c2ccc3oc(=O)[nH]c3c2)cc1)NC(=O)C1(N)CCOCC1 [Example 33, (S)-4-Amino-N-(1-cyano-2-(4-(2-oxo-2,3-dihydrobenzo[d]oxazol-5-yl)phenyl)ethyl)tetrahydro-2H-pyran-4-carboxamide trifluoroacetatic acid salt]
6 | < 0.316 | COCCCn1c(=O)oc2ccc(-c3ccc(C[C@@H](C#N)NC(=O)C4(N)CCOCC4)cc3)cc21 [Example 11, (S)-4-Amino-N-(1-cyano-2-(4-(3-(3-methoxypropyl)-2-oxo-2,3-dihydrobenzo[d]oxazol-5-yl)phenyl)ethyl)tetrahydro-2H-pyran-4-carboxamide trifluoroacetic acid salt]
7 | 0.631 | CS(=O)(=O)c1cccc(-c2ccc(C[C@@H](C#N)NC(=O)C3(N)CCOCC3)cc2)c1 [Example 23, (S)-4-Amino-N-(1-cyano-2-(3′-(methylsulfonyl)biphenyl-4-yl)ethyl)tetrahydro-2H-pyran-4-carboxamide trifluoroacetic acid salt]
8 | 0.316 | N#C[C@H](Cc1ccc(-c2ccc(F)c(F)c2)cc1)NC(=O)C1(N)CCOCC1 [Example 13, (S)-4-Amino-N-(1-cyano-2-(3′,4′-difluorobiphenyl-4-yl)ethyl)tetrahydro-2H-pyran-4-carboxamide trifluoroacetic acid salt]
9 | < 0.316 | Cc1cc(-c2ccc(C[C@@H](C#N)NC(=O)C3(N)CCOCC3)cc2)ccc1C#N [Example 19, (S)-4-Amino-N-(1-cyano-2-(4′-cyano-3′-methylbiphenyl-4-yl)ethyl)tetrahydro-2H-pyran-4-carboxamide trifluoroacetic acid salt]
10 | 0.631 | N#C[C@H](Cc1ccc(-c2ccc(C(F)(F)F)cc2)cc1)NC(=O)C1(N)CCOCC1 [Example 1, (S)-4-Amino-N-(1-cyano-2-(4′-(trifluoromethyl)biphenyl-4-yl)ethyl)tetrahydro-2H-pyran-4-carboxamide]
11 | 0.794 | Cc1ccc(-c2ccc(C[C@@H](C#N)NC(=O)C3(N)CCOCC3)cc2)cc1C#N [Example 18, (S)-4-Amino-N-(1-cyano-2-(3′-cyano-4′-methylbiphenyl-4-yl)ethyl)tetrahydro-2H-pyran-4-carboxamide trifluoroacetic acid salt]
12 | 0.501 | CS(=O)(=O)Oc1cccc(-c2ccc(C[C@@H](C#N)NC(=O)C3(N)CCOCC3)cc2)c1 [Example 12, (S)-4′-(2-(4-Aminotetrahydro-2H-pyran-4-carboxamido)-2-cyanoethyl)biphenyl-3-yl methanesulfonate]
13 | 1.26 | N#C[C@H](Cc1ccc(-c2ccc(C(N)=O)c(F)c2)cc1)NC(=O)C1(N)CCOCC1 [Example 25, (S)-4-Amino-N-(2-(4′-carbamoyl-3′-fluorobiphenyl-4-yl)-1-cyanoethyl)tetrahydro-2H-pyran-4-carboxamide]
14 | 0.794 | COc1ccc(-c2ccc(C[C@@H](C#N)NC(=O)C3(N)CCOCC3)cc2)cc1 [Example 20, (S)-4-Amino-N-(1-cyano-2-(4′-methoxybiphenyl-4-yl)ethyl)tetrahydro-2H-pyran-4-carboxamide]
15 | 0.631 | CN1CCN(S(=O)(=O)c2ccc(-c3ccc(C[C@@H](C#N)NC(=O)C4(N)CCOCC4)cc3)cc2)CC1 [Example 29, (S)-4-Amino-N-(1-cyano-2-(4′-(4-methylpiperazin-1-ylsulfonyl)biphenyl-4-yl)ethyl)tetrahydro-2H-pyran-4-carboxamide]
16 | 0.398 | CS(=O)(=O)Oc1ccc(-c2ccc(C[C@@H](C#N)NC(=O)C3(N)CCOCC3)cc2)cc1 [Example 6, (S)-4′-(2-(4-Aminotetrahydro-2H-pyran-4-carboxamido)-2-cyanoethyl)biphenyl-4-yl methanesulfonate trifluoroacetic acid salt, methanesulfonate trifluoroacetic acid …]
17 | < 0.316 | CN1C(=O)COc2ccc(-c3ccc(C[C@@H](C#N)NC(=O)C4(N)CCOCC4)cc3)cc21 [Example 10, (S)-4-Amino-N-(1-cyano-2-(4-(4-methyl-3-oxo-3,4-dihydro-2H-benzo[b][1,4]oxazin-6-yl)phenyl)ethyl)tetrahydro-2H-pyran-4-carboxamide trifluoroacetic acid salt]
18 | 0.398 | N#C[C@H](Cc1ccc(-c2ccc(F)cc2)cc1)NC(=O)C1(N)CCOCC1 [Example 4, (S)-4-Amino-N-(1-cyano-2-(4′-fluorobiphenyl-4-yl)ethyl)tetrahydro-2H-pyran-4-carboxamide]
19 | 0.631 | N#C[C@H](Cc1ccc(-c2ccc(S(=O)(=O)N3CCC3)cc2)cc1)NC(=O)C1(N)CCOCC1 [Example 7, (S)-4-Amino-N-(2-(4′-(azetidin-1-ylsulfonyl)biphenyl-4-yl)-1-cyanoethyl)tetrahydro-2H-pyran-4-carboxamide trifluoroacetic acid salt]
20 | 1.26 | COc1cc(-c2ccc(C[C@@H](C#N)NC(=O)C3(N)CCOCC3)cc2)ccn1 [Example 26, (S)-4-Amino-N-(1-cyano-2-(4-(2-methoxypyridin-4-yl)phenyl)ethyl)tetrahydro-2H-pyran-4-carboxamide]
21 | 0.251 | CN1C(=O)Cc2ccc(-c3ccc(C[C@@H](C#N)NC(=O)C4(N)CCOCC4)cc3)cc21 [Example 21, (S)-4-Amino-N-(1-cyano-2-(4-(1-methyl-2-oxoindolin-6-yl)phenyl)ethyl)tetrahydro-2H-pyran-4-carboxamide]
22 | < 0.398 | N#Cc1cc(-c2ccc(C[C@@H](C#N)NC(=O)C3(N)CCOCC3)cc2)ccc1F [Example 22, (S)-4-Amino-N-(1-cyano-2-(3′-cyano-4′-fluorobiphenyl-4-yl)ethyl)tetrahydro-2H-pyran-4-carboxamide]
23 | 5.01 | CN1Cc2cc(-c3ccc(C[C@@H](C#N)NC(=O)C4(N)CCOCC4)cc3)cnc2C1=O [Example 32, (S)-4-Amino-N-(1-cyano-2-(4-(6-methyl-7-oxo-6,7-dihydro-5H-pyrrolo[3,4-b]pyridin-3-yl)phenyl)ethyl)tetrahydro-2H-pyran-4-carboxamide]
24 | 0.126 | N#C[C@H](Cc1ccc(-c2ccc3c(c2)CNC3=O)cc1)NC(=O)C1(N)CCOCC1 [Example 15, (S)-4-Amino-N-(1-cyano-2-(4-(1-oxoisoindolin-5-yl)phenyl)ethyl)tetrahydro-2H-pyran-4-carboxamide]
